According to ChEMBL document CHEMBL3885881, “DrugMatrix”:

Organism: Rattus norvegicus
Test: DrugMatrix - Regimen: Daily Repeat
Assay type: toxicity, organism-based, Sprague-Dawley
Design: regimen Daily Repeat, gender Male, age 6-8 weeks
Settings: in vivo, po, route oral GAVAGE, vehicle 100 % SALINE; for ABSOLUTE BASOPHIL / ABSOLUTE EOSINOPHIL / ABSOLUTE LYMPHOCYTE / ABSOLUTE MONOCYTE / ABSOLUTE SEGMENTED NEUTROPHIL / BASOPHIL / EOSINOPHIL / ERYTHROCYTE COUNT / HEMATOCRIT / HEMOGLOBIN / LEUKOCYTE COUNT / LYMPHOCYTE / MEAN CORPUSCULAR HEMOGLOBIN / MEAN CORPUSCULAR HEMOGLOBIN CONCENTRATION / MONOCYTE / NEUTROPHIL / NUCLEATED RED BLOOD CELLS / PLATELET COUNT: tissue Blood; for ALANINE AMINOTRANSFERASE / ALBUMIN / ALKALINE PHOSPHATASE / ASPARTATE AMINOTRANSFERASE / BLOOD UREA NITROGEN / CARBON DIOXIDE / CHOLESTEROL / CREATINE PHOSPHOKINASE / CREATININE / GLUCOSE / LACTATE DEHYDROGENASE / LIPASE / POTASSIUM / SODIUM / TOTAL BILIRUBIN / TOTAL PROTEIN / URIC ACID: tissue Plasma
[1] = 330 mg/kg, 120 h, dose level Low, time 5 day
[2] = 980 mg/kg, 72 h, dose level High, time 3 day
[3] = 980 mg/kg, 120 h, dose level High, time 5 day

In the case of `Nc1nc2c(ncn2COCCO)c(=O)[nH]1` [ACYCLOVIR], the “ABSOLUTE BASOPHIL” value [1] is reported as 0 CELLS/uL, the “ABSOLUTE EOSINOPHIL” value [1] is reported as 23.33 CELLS/uL and the “ABSOLUTE LYMPHOCYTE” value [1] is reported as 6827.33 CELLS/uL. The “ABSOLUTE MONOCYTE” value [1] was 23.33 CELLS/uL, the “ABSOLUTE SEGMENTED NEUTROPHIL” value [1] was 459.33 CELLS/uL and the BASOPHIL [1] was 0%. The EOSINOPHIL [1] was 0.33%, the “ERYTHROCYTE COUNT” value [1] was 5.77 x10E6/uL and the HEMATOCRIT [1] was 36%. The HEMOGLOBIN [1] was 13.93 G/DL, the “LEUKOCYTE COUNT” value [1] was 7.33 x10E3/uL and the LYMPHOCYTE [1] was 92.67%. The “MEAN CORPUSCULAR HEMOGLOBIN” value [1] was 24.17 pg, the “MEAN CORPUSCULAR HEMOGLOBIN CONCENTRATION” value [1] was 38.7 G/DL and the MONOCYTE [1] was 0.33%. The NEUTROPHIL [1] was 6.67%, the “NUCLEATED RED BLOOD CELLS” value [1] was 0 /100WBC and the “PLATELET COUNT” value [1] was 980.67 x10E3/uL. The “ALANINE AMINOTRANSFERASE” value [1] was 54 u/L, the ALBUMIN [1] was 4.1 G/DL and the “ALKALINE PHOSPHATASE” value [1] was 310 u/L. The “ASPARTATE AMINOTRANSFERASE” value [1] was 89.33 u/L, the “BLOOD UREA NITROGEN” value [1] was 14 mg/dL and the “CARBON DIOXIDE” value [1] was 31 mmol/L. For the same compound, the CHOLESTEROL [1] was 71.33 mg/dL, the “CREATINE PHOSPHOKINASE” value [1] was 331 u/L and the CREATININE [1] was 0.35 mg/dL. For the same compound, the GLUCOSE [1] was 149.67 mg/dL, the “LACTATE DEHYDROGENASE” value [1] was 119.33 u/L and the LIPASE [1] was 11.67 u/L. For the same compound, the POTASSIUM [1] was 6.3 MEQ/L, the SODIUM [1] was 145.23 MEQ/L and the “TOTAL BILIRUBIN” value [1] was 0.17 mg/dL. For the same compound, the “TOTAL PROTEIN” value [1] was 5.87 G/DL, the “URIC ACID” value [1] was 0.97 mg/dL and the “ABSOLUTE BASOPHIL” value [2] was 0 CELLS/uL. For the same compound, the “ABSOLUTE EOSINOPHIL” value [2] was 28.33 CELLS/uL, the “ABSOLUTE LYMPHOCYTE” value [2] was 6898 CELLS/uL and the “ABSOLUTE MONOCYTE” value [2] was 45.67 CELLS/uL. For the same compound, the “ABSOLUTE SEGMENTED NEUTROPHIL” value [2] was 428 CELLS/uL, the BASOPHIL [2] was 0% and the EOSINOPHIL [2] was 0.33%. For the same compound, the “ERYTHROCYTE COUNT” value [2] was 5.27 x10E6/uL, the HEMATOCRIT [2] was 32.97% and the HEMOGLOBIN [2] was 12.8 G/DL. The “LEUKOCYTE COUNT” value [2] was 7.4 x10E3/uL, the LYMPHOCYTE [2] was 93% and the “MEAN CORPUSCULAR HEMOGLOBIN” value [2] was 24.37 pg. The “MEAN CORPUSCULAR HEMOGLOBIN CONCENTRATION” value [2] was 38.87 G/DL, the MONOCYTE [2] was 0.67% and the NEUTROPHIL [2] was 6%. The “NUCLEATED RED BLOOD CELLS” value [2] was 0 /100WBC, the “PLATELET COUNT” value [2] was 1125.67 x10E3/uL and the “ALANINE AMINOTRANSFERASE” value [2] was 47.33 u/L. The ALBUMIN [2] was 4.07 G/DL, the “ALKALINE PHOSPHATASE” value [2] was 321 u/L and the “ASPARTATE AMINOTRANSFERASE” value [2] was 79.33 u/L. For the same compound, the “BLOOD UREA NITROGEN” value [2] was 12.67 mg/dL, the “CARBON DIOXIDE” value [2] was 28.33 mmol/L and the CHOLESTEROL [2] was 67.33 mg/dL. The “CREATINE PHOSPHOKINASE” value [2] was 458 u/L, the CREATININE [2] was 0.23 mg/dL and the GLUCOSE [2] was 154 mg/dL. For the same compound, the “LACTATE DEHYDROGENASE” value [2] was 123 u/L, the LIPASE [2] was 9.67 u/L and the POTASSIUM [2] was 5.85 MEQ/L. For the same compound, the SODIUM [2] was 142.43 MEQ/L, the “TOTAL BILIRUBIN” value [2] was 0.17 mg/dL and the “TOTAL PROTEIN” value [2] was 5.77 G/DL. The “URIC ACID” value [2] was 0.9 mg/dL, the “ABSOLUTE BASOPHIL” value [3] was 0 CELLS/uL and the “ABSOLUTE EOSINOPHIL” value [3] was 32 CELLS/uL. The “ABSOLUTE LYMPHOCYTE” value [3] was 9269.33 CELLS/uL, the “ABSOLUTE MONOCYTE” value [3] was 115 CELLS/uL and the “ABSOLUTE SEGMENTED NEUTROPHIL” value [3] was 383.67 CELLS/uL. The BASOPHIL [3] was 0%, the EOSINOPHIL [3] was 0.33% and the “ERYTHROCYTE COUNT” value [3] was 5.83 x10E6/uL. The HEMATOCRIT [3] was 35.13%, the HEMOGLOBIN [3] was 13.9 G/DL and the “LEUKOCYTE COUNT” value [3] was 9.8 x10E3/uL. For the same compound, the LYMPHOCYTE [3] was 94.33%, the “MEAN CORPUSCULAR HEMOGLOBIN” value [3] was 23.83 pg and the “MEAN CORPUSCULAR HEMOGLOBIN CONCENTRATION” value [3] was 39.6 G/DL. For the same compound, the MONOCYTE [3] was 1.33%, the NEUTROPHIL [3] was 4% and the “NUCLEATED RED BLOOD CELLS” value [3] was 0.33 /100WBC. For the same compound, the “PLATELET COUNT” value [3] was 783 x10E3/uL, the “ALANINE AMINOTRANSFERASE” value [3] was 46.67 u/L and the ALBUMIN [3] was 4.17 G/DL. For the same compound, the “ALKALINE PHOSPHATASE” value [3] was 320.33 u/L, the “ASPARTATE AMINOTRANSFERASE” value [3] was 74 u/L and the “BLOOD UREA NITROGEN” value [3] was 15.67 mg/dL. The “CARBON DIOXIDE” value [3] was 29.33 mmol/L, the CHOLESTEROL [3] was 57.67 mg/dL and the “CREATINE PHOSPHOKINASE” value [3] was 253.33 u/L. For the same compound, the CREATININE [3] was 0.44 mg/dL, the GLUCOSE [3] was 155.67 mg/dL and the “LACTATE DEHYDROGENASE” value [3] was 135.67 u/L. It also gave an LIPASE [3] of 12 u/L, a POTASSIUM [3] of 5.65 MEQ/L and an SODIUM [3] of 145.17 MEQ/L. The “TOTAL BILIRUBIN” value [3] was 0.17 mg/dL, the “TOTAL PROTEIN” value [3] was 5.83 G/DL and the “URIC ACID” value [3] was 0.83 mg/dL.
